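Following 48 hours of exposure in 96-well plates, responses at five concentrations were used to interpolate endpoints linearly. The concentration for 50% growth inhibition is given as GI50.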 Active and inactive are the calls of the source. Cut-off read from the data, not from the text of the source: active = GI50 up to about 1.1 µM and inactive = higher.

The source of these data is ChEMBL document CHEMBL1201862, “PubChem BioAssay data set” (2004).

Among the test systems are ACHN; CCRF-CEM; EKVX; HCT-116; HOP-62; HT-29; MCF7; MDA-MB-231; MDA-N; NCI-H460; SF-268; SF-539; SK-MEL-28; SK-MEL-2; SNB-19; SR; UACC-257; A549; SK-MEL-5; RXF 393.
What all share (assay): inhibition of tumour cell growth, NCI panel, 48 h

`CCCCN(CCCC)CCC(O)c1cc2c(Cl)cc(Cl)cc2c2cc(C(F)(F)F)ccc12` (stereo unspecified): the GI50 with ACHN is 12 µM (inactive); in the test on CCRF-CEM, 11.2 µM (inactive); in the test with EKVX, 14.5 µM (inactive); with HCT-116 it was 12.2 µM (inactive); in the test on HOP-62, 10 µM (inactive); with HT-29 it was 13.6 µM (inactive). Further, the GI50 in the test with MCF7 was 10.2 µM (inactive); with MDA-MB-231, 2.52 µM (inactive); in the test with MDA-N it was 12.7 µM (inactive); in the test on NCI-H460, 10.3 µM (inactive); in the test on SF-268, 11.7 µM (inactive); with SF-539, 9.4 µM (inactive). The GI50 with SK-MEL-28 was 16.7 µM (inactive); in the test with SK-MEL-2 it was 16.1 µM (inactive); in the test with SNB-19, 19.1 µM (inactive); with SR, 10.3 µM (inactive); in the test with UACC-257 it was 14.5 µM (inactive).

In the case of `C/C(=N\NC(=S)Nc1ccc(C)cc1)c1nc2cccnc2[nH]1`, the GI50 with A549 was 2.33 µM (inactive); in the test with ACHN, 1.44 µM (inactive); with CCRF-CEM it was 0.452 µM (active); in the test on EKVX it was 0.61 µM (active); in the test on HCT-116, 1.6 µM (inactive); in the test on HOP-62, 3.17 µM (inactive). In addition, the GI50 in the test with HT-29 is 0.681 µM (active); in the test with MCF7 it was 0.721 µM (active); with MDA-MB-231, 1.17 µM (inactive); in the test on MDA-N it was 4.63 µM (inactive); with NCI-H460, 1.32 µM (inactive); with SF-268 it was 0.587 µM (active). For the same molecule, the GI50 with SF-539 was 1.14 µM (inactive); in the test on SK-MEL-28, 2.86 µM (inactive); with SK-MEL-2, 10.8 µM (inactive); in the test on SK-MEL-5 it was 1.76 µM (inactive); with SNB-19, 3.2 µM (inactive); in the test on SR it was 0.849 µM (active). In addition, in the test on UACC-257, the GI50 is 2.38 µM (inactive).

In the case of `COC(=O)C1Cc2cc3c(cc2C1=O)CCC3` (stereo unspecified), the GI50 with A549 is > 100 µM (inactive); in the test on ACHN it was > 100 µM (inactive); in the test with CCRF-CEM, 92.7 µM (inactive); in the test with EKVX, > 100 µM (inactive); in the test on HCT-116 it was > 100 µM (inactive); in the test on HOP-62, > 100 µM (inactive). The GI50 in the test with HT-29, with MCF7, in the test with MDA-MB-231, in the test with MDA-N, in the test on NCI-H460 and in the test with SF-268 was > 100 µM (inactive) each time. The GI50 with SF-539, with SK-MEL-28, with SK-MEL-2, with SK-MEL-5, with SNB-19 and in the test with SR was > 100 µM (inactive) each time. Moreover, in the test with UACC-257, the GI50 was > 100 µM (inactive).

Regarding `CCOC(=O)N(C)C(=C(F)F)C(F)(F)F`, the GI50 in the test with A549 is 29 µM (inactive); in the test on ACHN, > 10 µM (inactive); in the test with CCRF-CEM it was 19.8 µM (inactive); in the test with EKVX, 27.6 µM (inactive); in the test on HCT-116, 20.4 µM (inactive); in the test on HOP-62, 25.2 µM (inactive). The GI50 in the test with HT-29 was 27 µM (inactive); in the test with MCF7, 36.6 µM (inactive); in the test with MDA-MB-231, 28.5 µM (inactive); in the test on MDA-N, 18.5 µM (inactive); in the test with NCI-H460 it was 28.6 µM (inactive); in the test with SF-268, 25.2 µM (inactive). Also, the GI50 in the test with SF-539 was 24.5 µM (inactive); with SK-MEL-28, 20 µM (inactive); in the test with SK-MEL-2, 16 µM (inactive); with SK-MEL-5 it was 15.7 µM (inactive); in the test on SR it was 3.95 µM (inactive); in the test on UACC-257, 31.5 µM (inactive).

For the molecule `CC(=O)N[C@@H](Cc1ccc(O)cn1)C(=O)NC1CCCCC1`, the GI50 in the test with A549, in the test on ACHN, in the test on CCRF-CEM, with EKVX, in the test on HCT-116 and with HOP-62 was > 100 µM (inactive) throughout. Also, the GI50 in the test with HT-29, with MCF7, in the test with MDA-MB-231, in the test with MDA-N, with SF-268 and with SF-539 was > 100 µM (inactive) throughout. Besides, the GI50 with SK-MEL-28, in the test on SK-MEL-2, with SK-MEL-5, with SNB-19, in the test with SR and in the test on UACC-257 was > 100 µM (inactive) each time.

For `COC(=O)c1ccc2c(c1)CC1(C2)Cc2ccc3c(c2C1)CCC3` (stereo unspecified), the GI50 in the test on A549 is 29.9 µM (inactive); in the test with ACHN it was 57 µM (inactive); in the test on CCRF-CEM, 19.3 µM (inactive); in the test with EKVX, 51.3 µM (inactive); in the test with HCT-116, 23.6 µM (inactive); in the test with HOP-62, 29.9 µM (inactive). The GI50 in the test with HT-29 was 17.5 µM (inactive); in the test with MCF7, 23.3 µM (inactive); with MDA-MB-231 it was 5.07 µM (inactive); in the test with MDA-N it was 3.63 µM (inactive); in the test with RXF 393 it was 17.7 µM (inactive); in the test on SF-268 it was 93.8 µM (inactive). Also, the GI50 is 47.8 µM (inactive) with SF-539; 86.1 µM (inactive) with SK-MEL-28; 14.3 µM (inactive) in the test with SK-MEL-5; 33 µM (inactive) in the test on SNB-19; 20.8 µM (inactive) in the test with SR; 20.2 µM (inactive) in the test on UACC-257.

For `NCCCCC(NC(=O)C(N)Cc1ccc(O)cn1)C(=O)O` (stereo unspecified), the GI50 with A549, with ACHN, with CCRF-CEM, in the test on EKVX, with HCT-116 and in the test with HOP-62 was > 100 µM (inactive) in each case. The GI50 in the test on HT-29, in the test on MCF7, in the test on MDA-MB-231, in the test on MDA-N, with NCI-H460 and in the test with RXF 393 was > 100 µM (inactive) throughout. In addition, the GI50 with SF-268, in the test on SF-539, with SK-MEL-28, in the test with SK-MEL-5, with SNB-19 and in the test on SR was > 100 µM (inactive) each time. Moreover, in the test with UACC-257, the GI50 was > 100 µM (inactive).

Consider `COC1CC(OC2C(C)OC(OC3C(C)OC(OC4C(O)CC(O[C@H]5CC[C@@]6(C)C(=CC[C@]7(O)[C@@H]6C[C@@H](OC(=O)/C=C/c6ccccc6)[C@@]6(C)[C@]7(O)CC[C@@]6(O)C(C)=O)C5)OC4C)CC3OC)CC2OC)OC(C)C1O` (stereo partly specified), for which the GI50 in the test on A549, in the test with ACHN, in the test with CCRF-CEM, in the test on EKVX, in the test on HCT-116 and in the test with HOP-62 was > 6.25 µM (inactive) in each case. The GI50 in the test on HT-29, in the test on MCF7, with MDA-MB-231, with MDA-N, with SF-268 and in the test on SF-539 was > 6.25 µM (inactive) throughout. Moreover, the GI50 in the test with SK-MEL-2, in the test with SK-MEL-5, with SNB-19, in the test on SR and in the test with UACC-257 was > 6.25 µM (inactive) in each case.

On to `CC(=O)Nc1cc(Nc2cc(O)nc(O)n2)ccc1C`, for which the GI50 in the test with A549, with ACHN, in the test on CCRF-CEM, with EKVX, in the test on HCT-116 and in the test with HOP-62 was > 100 µM (inactive) throughout. The GI50 in the test on MCF7, in the test on MDA-MB-231, in the test on MDA-N, in the test with NCI-H460, in the test on RXF 393 and with SF-268 was > 100 µM (inactive) throughout. The GI50 in the test on SF-539, in the test with SK-MEL-28, in the test with SK-MEL-5, in the test with SNB-19, with SR and in the test on UACC-257 was > 100 µM (inactive) throughout.

Take `COc1cc(/C=C/C(=O)O)ccc1O` [FERULATE]: the GI50 in the test on A549, in the test with ACHN, in the test with CCRF-CEM, in the test with EKVX, in the test with HCT-116 and in the test on HOP-62 was > 100 µM (inactive) throughout. Moreover, the GI50 in the test with HT-29, in the test with MCF7, with MDA-MB-231, in the test with MDA-N, in the test on NCI-H460 and in the test on SF-268 was > 100 µM (inactive) each time. Besides, the GI50 in the test with SF-539, in the test with SK-MEL-28, with SK-MEL-2, in the test with SK-MEL-5, in the test with SNB-19 and in the test with SR was > 100 µM (inactive) throughout. In addition, the GI50 with UACC-257 is > 100 µM (inactive).

For the molecule `CC1(O)CCC(C(C)(C)O)CC1` (stereo unspecified) [TERPIN], the GI50 in the test on A549 was > 100 µM (inactive); in the test on ACHN it was > 100 µM (inactive); in the test on CCRF-CEM, > 100 µM (inactive); in the test on EKVX it was 0.505 µM (active); with HCT-116 it was > 100 µM (inactive); with HOP-62, > 100 µM (inactive). Also, the GI50 in the test with HT-29, in the test with MCF7, in the test with MDA-MB-231, in the test on MDA-N, in the test with NCI-H460 and in the test on SF-268 was > 100 µM (inactive) in each case. Besides, the GI50 with SF-539, in the test on SK-MEL-28, with SK-MEL-2, with SK-MEL-5, with SNB-19 and with SR was > 100 µM (inactive) each time. The GI50 in the test with UACC-257 was > 100 µM (inactive).
